# Test results reported in patent US12139472B2, “Inhibitors of advanced glycation end products” (priority 2019, dated 2024).
# Experiment: Pharmacokinetic study for PTG-630 (IV and PO): plasma, whole blood, tissues, urine
# Type: in vivo, Sprague Dawley rats
# Procedure: The samples were analyzed in two batches with standards and QCs prepared on rat plasma and rat urine. Analyst® 1.6 (SCIEX) software was used for statistical analysis of bioanalytical data. […] Dose samples collected at 0.083 h-6 h postdose were diluted 4 times with SD rat plasma prior to plating. Twenty-four (24) hours plasma samples were assayed without dilution. […] Two sciatic nerve samples were excluded from analysis, due to the insufficient sample size. […] The 12 non-cannulated animals were arbitrarily assigned to groups upon arrival and housed together throughout the experiment. The animals were acclimated to their designated housing for at least 24 hours before the first day of dosing. […] Blood samples were collected via cannula from IV dosed rats or by cardiac stick from PO dosed rats at the specified time points for sampling pharmacokinetics. Blood was collected into K2EDTA tubes. Tubes were mixed gently after blood collection, chilled and centrifuged at 3000 rpm, 4° C. within 30 minutes upon collection. The samples were centrifuged at 4° C. and the resultant plasma separated. […] Urine from Group 1 was collected via polycarbonate tubes from rats placed in drug metabolism cages. Urine was maintained and room temperature through the collection period.
# [1] = PTG-4997 in kidneys after PTG-630 PO
structure (smiles),measurement,setting,value
Cc1ncc(CO)c(-c2ncc[nH]2)c1O [PTG-4997],MRT,[1],11.6 h
same,Tmax,[1],6 h
same,half-life,[1],2.36 h
same,PTG-4997 (metabolite) concentration,"Table 2, for PTG-4997 (metabolite) after PTG-630 IV 5 mg/kg, plasma, 0.083 h postdose, individual animals",<BLQ
same,PTG-4997 (metabolite) concentration,"Table 2, for PTG-4997 (metabolite) after PTG-630 IV 5 mg/kg, plasma, 0.5 h postdose, individual animals, 5 mg/kg",<BLQ
same,PTG-4997 (metabolite) concentration,"Table 2, for PTG-4997 (metabolite) after PTG-630 IV 5 mg/kg, plasma, 1 h postdose, individual animals",<BLQ
same,PTG-4997 (metabolite) concentration,"Table 2, for PTG-4997 (metabolite) after PTG-630 IV 5 mg/kg, plasma, 24 h postdose, individual animals",<BLQ
same,PTG-4997 (metabolite) concentration,"Table 2, for PTG-4997 (metabolite) after PTG-630 PO 100 mg/kg, brain, 0.5 h postdose, Mean",<BLQ
same,PTG-4997 (metabolite) concentration,"Table 2, for PTG-4997 (metabolite) after PTG-630 PO 100 mg/kg, brain, 0.5 h postdose, individual animals",<BLQ
same,PTG-4997 (metabolite) concentration,"Table 2, for PTG-4997 (metabolite) after PTG-630 PO 100 mg/kg, brain, 1 h postdose, Mean",<BLQ
same,PTG-4997 (metabolite) concentration,"Table 2, for PTG-4997 (metabolite) after PTG-630 PO 100 mg/kg, brain, 1 h postdose, individual animals",<BLQ
same,PTG-4997 (metabolite) concentration,"Table 2, for PTG-4997 (metabolite) after PTG-630 PO 100 mg/kg, brain, 2 h postdose, Mean",<BLQ
same,PTG-4997 (metabolite) concentration,"Table 2, for PTG-4997 (metabolite) after PTG-630 PO 100 mg/kg, brain, 2 h postdose, individual animals",<BLQ
same,PTG-4997 (metabolite) concentration,"Table 2, for PTG-4997 (metabolite) after PTG-630 PO 100 mg/kg, brain, 4 h postdose, Mean",<BLQ
same,PTG-4997 (metabolite) concentration,"Table 2, for PTG-4997 (metabolite) after PTG-630 PO 100 mg/kg, brain, 4 h postdose, individual animals",<BLQ
same,PTG-4997 (metabolite) concentration,"Table 2, for PTG-4997 (metabolite) after PTG-630 PO 100 mg/kg, brain, 6 h postdose, Mean",<BLQ
same,PTG-4997 (metabolite) concentration,"Table 2, for PTG-4997 (metabolite) after PTG-630 PO 100 mg/kg, brain, 6 h postdose, individual animals",<BLQ
same,PTG-4997 (metabolite) concentration,"Table 2, for PTG-4997 (metabolite) after PTG-630 PO 100 mg/kg, brain, 24 h postdose, Mean",<BLQ
same,PTG-4997 (metabolite) concentration,"Table 2, for PTG-4997 (metabolite) after PTG-630 PO 100 mg/kg, brain, 24 h postdose, individual animals",<BLQ
same,PTG-4997 (metabolite) concentration,"Table 2, for PTG-4997 (metabolite) after PTG-630 PO 100 mg/kg, kidney, 0.5 h postdose, Mean",86.5 ng/mL
same,PTG-4997 (metabolite) concentration,"Table 2, for PTG-4997 (metabolite) after PTG-630 PO 100 mg/kg, kidney, 1 h postdose, Mean",0 ng/mL
same,PTG-4997 (metabolite) concentration,"Table 2, for PTG-4997 (metabolite) after PTG-630 PO 100 mg/kg, kidney, 2 h postdose, Mean",81 ng/mL
same,PTG-4997 (metabolite) concentration,"Table 2, for PTG-4997 (metabolite) after PTG-630 PO 100 mg/kg, kidney, 4 h postdose, Mean",128 ng/mL
same,PTG-4997 (metabolite) concentration,"Table 2, for PTG-4997 (metabolite) after PTG-630 PO 100 mg/kg, kidney, 6 h postdose, Mean",182.5 ng/mL
same,PTG-4997 (metabolite) concentration,"Table 2, for PTG-4997 (metabolite) after PTG-630 PO 100 mg/kg, kidney, 24 h postdose, Mean",106 ng/mL
same,PTG-4997 (metabolite) concentration,"Table 2, for PTG-4997 (metabolite) after PTG-630 PO 100 mg/kg, liver, 0.5 h postdose, Mean",<BLQ
same,PTG-4997 (metabolite) concentration,"Table 2, for PTG-4997 (metabolite) after PTG-630 PO 100 mg/kg, liver, 0.5 h postdose, individual animals",<BLQ
same,PTG-4997 (metabolite) concentration,"Table 2, for PTG-4997 (metabolite) after PTG-630 PO 100 mg/kg, liver, 1 h postdose, Mean",<BLQ
same,PTG-4997 (metabolite) concentration,"Table 2, for PTG-4997 (metabolite) after PTG-630 PO 100 mg/kg, liver, 1 h postdose, individual animals",<BLQ
same,PTG-4997 (metabolite) concentration,"Table 2, for PTG-4997 (metabolite) after PTG-630 PO 100 mg/kg, liver, 2 h postdose, Mean",<BLQ
same,PTG-4997 (metabolite) concentration,"Table 2, for PTG-4997 (metabolite) after PTG-630 PO 100 mg/kg, liver, 2 h postdose, individual animals",<BLQ
same,PTG-4997 (metabolite) concentration,"Table 2, for PTG-4997 (metabolite) after PTG-630 PO 100 mg/kg, liver, 4 h postdose, Mean",<BLQ
same,PTG-4997 (metabolite) concentration,"Table 2, for PTG-4997 (metabolite) after PTG-630 PO 100 mg/kg, liver, 4 h postdose, individual animals",<BLQ
same,PTG-4997 (metabolite) concentration,"Table 2, for PTG-4997 (metabolite) after PTG-630 PO 100 mg/kg, liver, 6 h postdose, Mean",<BLQ
same,PTG-4997 (metabolite) concentration,"Table 2, for PTG-4997 (metabolite) after PTG-630 PO 100 mg/kg, liver, 6 h postdose, individual animals",<BLQ
same,PTG-4997 (metabolite) concentration,"Table 2, for PTG-4997 (metabolite) after PTG-630 PO 100 mg/kg, liver, 24 h postdose, Mean",<BLQ
same,PTG-4997 (metabolite) concentration,"Table 2, for PTG-4997 (metabolite) after PTG-630 PO 100 mg/kg, liver, 24 h postdose, individual animals",<BLQ
same,PTG-4997 (metabolite) concentration,"Table 2, for PTG-4997 (metabolite) after PTG-630 PO 100 mg/kg, muscle, 0.5 h postdose, Mean",<BLQ
same,PTG-4997 (metabolite) concentration,"Table 2, for PTG-4997 (metabolite) after PTG-630 PO 100 mg/kg, muscle, 0.5 h postdose, individual animals",<BLQ
same,PTG-4997 (metabolite) concentration,"Table 2, for PTG-4997 (metabolite) after PTG-630 PO 100 mg/kg, muscle, 1 h postdose, Mean",<BLQ
same,PTG-4997 (metabolite) concentration,"Table 2, for PTG-4997 (metabolite) after PTG-630 PO 100 mg/kg, muscle, 1 h postdose, individual animals",<BLQ
